Data taken from ChEMBL document CHEMBL6083251, “"Pseudosubstrate Envelope"/Free Energy Perturbation-Guided Design and Mechanistic Investigations of Benzothiazole HIV Capsid Modulators with High Ligand Efficiency” (J Med Chem, 2024).
Calls of active or inactive are those of the source. The rule behind the calls is not given here.

Columns and labels:
[1] = test system: Human immunodeficiency virus 1; assay: Anti-HIV activity against wild type HIV-1 IIIB infected in human MT4 cells assessed as protection against virus-induced cytopathic effect incubated for 5 days by spectrophotometric based MTT assay; format: functional, organism-based; conditions: Human immunodeficiency virus 1, IIIB, MT4, 120 h
[2] = molecular target: Structural capsid protein (Human immunodeficiency virus 1, UniProt Q76129); assay: Binding affinity to hexameric HIV-1 NL4.3 capsid protein assessed as dissociation constant by SPR assay
[3] = test system: Human immunodeficiency virus 1; assay: Antiviral activity against pseudotyped HIV-1 expressing luciferase-reporter transfected in HEK293T cells assessed as viral inhibition at early stage incubated for 48 hrs by Single-round infection assay; format: functional, organism-based
[4] = Half life in male Sprague-Dawley rat at 10 mg/kg, sc measured upto 24 hrs by LC-MS/MS analysis; format: ADME, organism-based; conditions: in vivo
[5] = Tmax in male Sprague-Dawley rat at 10 mg/kg, sc measured upto 24 hrs by LC-MS/MS analysis; format: ADME, organism-based; conditions: in vivo
[6] = Cmax in male Sprague-Dawley rat at 2 mg/kg, iv measured upto 24 hrs by LC-MS/MS analysis; format: ADME, organism-based; conditions: in vivo
[7] = […] bioavailability in male Sprague-Dawley rat at 10 mg/kg measured upto 24 hrs by LC-MS/MS analysis; format: ADME, organism-based; conditions: in vivo
[8] = molecular target: Structural capsid protein (Human immunodeficiency virus 1) (UniProt Q76129); assay: Binding affinity to HIV-1 hexameric capsid protein assessed as reduction in NUP153 binding to capsid protein by competition assay based SPR analysis; conditions: filed as modulator
[9] = test system: Human immunodeficiency virus 1; assay: Antiviral activity against pseudotyped HIV-1 expressing luciferase-reporter transfected in HEK293T cells assessed as increase in p24 level in progeny virions by ELISA analysis; format: functional, organism-based
[10] = Acute toxicity in male Kunming mouse assessed as body weight gain at 1000 mg/kg, IG administered via gavage; format: organism-based; conditions: in vivo, po
[11] = Acute toxicity in female Kunming mouse assessed as death at 1000 mg/kg, IG administered via gavage; format: organism-based; conditions: in vivo, po
[12] = Subacute toxicity in male Kunming mouse assessed as change in body weight at 50 mg/kg, po administered every other day for 14 days; format: organism-based; conditions: in vivo, 336 h, time 14 day
[13] = Subacute toxicity in male Kunming mouse assessed as hunched posture at 50 mg/kg, po administered every other day for 14 days; format: organism-based; conditions: in vivo, 336 h, time 14 day
[14] = Subacute toxicity in male Kunming mouse assessed as scattered lymphocyte infiltration in heart at 50 mg/kg, po administered every other day for 14 days by H and E staining based analysis; format: organism-based; conditions: in vivo, 336 h, time 14 day
[15] = Subacute toxicity in male Kunming mouse assessed as pathological damage in lungs at 50 mg/kg, po administered every other day for 14 days by H and E staining based analysis; format: organism-based; conditions: in vivo, 336 h, time 14 day

Structural capsid protein (Human immunodeficiency virus 1), sequence (Q76129 as listed by the source): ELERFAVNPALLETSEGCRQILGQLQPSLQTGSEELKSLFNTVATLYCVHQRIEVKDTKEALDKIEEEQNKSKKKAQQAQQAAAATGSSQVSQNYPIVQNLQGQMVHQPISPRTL
Structural capsid protein, sequence (Q76129 whole entry): as the sequence (Q76129 as listed by the source) above

CN(C(=O)[C@H](Cc1cc(F)cc(F)c1)NC(=O)Cc1c[nH]c2ccc(O)cc12)c1ccc2scnc2c1
EC50 [1]: 2.69 nM
Kd [2]: 24.6 nM
Activity [3]: Active
half-life [4]: 3.66 h
Tmax [5]: 1.33 h
Cmax [6]: 18.8 ng/mL
bioavailability [7]: 84.2%
Activity [8]: Active
Activity [9]: Active
Activity [10]: Non-toxic
Activity [11]: Non-toxic
Activity [12]: Non-toxic
Activity [13]: Non-toxic
Activity [14]: Non-toxic
Activity [15]: Non-toxic
